According to patent US20100119483A1, “PEPTIDE VIRAL ENTRY INHIBITORS” (Schering Corporation, priority 2004, published 2010):
“And” between values parts separate entries of the source, which are not always exact repeats. Equal values may be shown once. Ends that are not written are not given here.

Legend:
HCV pseudoparticles = test: HCV pseudoparticle (HCVpp) entry assay in Huh7 hepatoma cells, luciferase readout; format: cell-based, hepatitis C virus; settings: for HCVpp % inh: peptide library screen, first screened at 100 ug/ml, cell entry inhibition vs uninhibited control; for luciferase units, HCV entry / viral entry as a percentage of the uninhibited control: duplicates; for % of control at ~30 uM: percentage of hepatitis C virus cellular entry at 30 μM peptide vs uninhibited control; for viral entry as a percentage of the uninhibited control: HCV entry
How it was run: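 Huh7 cells were pre-treated with peptide for 1 h at 37 °C before exposure to HCV E1/E2-pseudotyped HIV luciferase particles made in 293T cells, followed by 72 h culture and luciferase readout. Peptides were tested at 10 points, 3-fold, from 100 ug/ml; particles lacking envelope served as non-specific entry control.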

[1] = test system: amphotropic murine leukemia virus; test: AMLV pseudotyped virus entry counter-screen, same infection protocol; format: cell-based; settings: for AMLVpp % inh: peptide library screen, cell entry inhibition vs uninhibited control; for luciferase units, AMLV entry: duplicates
Protocol: Infection of hepatoma cell lines with HCV pseudotype particles and screen for inhibitory peptides. The hepatoma cells, Huh7, was seeded at 8000 cells in 90 ul medium in 96-well plate. In the case of the inhibitor screen, the inhibitor was incubated with cells for one hour at 37° C. and then 50 ul viral supernatant was added to the cells 24 hours after seeding. The viral stock was pre-tittered and diluted to yield approximately 10,000 to 20,000 RLU. The cells were incubated at 37° C. with 5% CO2 for additional 72 hours and were harvested for luciferase assay. Peptide stocks were prepared in 100% DMSO at 10 mg/ml and were first screened at 100 ug/ml and then a dose responsive curve was generated with 10 points 3-fold titration starting from 100 ug/ml.
The specificity of the peptides were counter-screened with AMLV and HIV pseudotyped viruses using the same infection protocol.

[2] = 0.01371742 uM of peptide (three lines)

Y-C-F-T-P-S-P-V-V-V-G-T-T-D-R-F (YCFTPSPVVVGTTDRF; not fully specified (C-terminus); printed as Y-C-F-T-P-S-P-V-V-V-G-T-T-D-R-F) [SEQ ID NO: 48]
HCVpp % inh (HCV pseudoparticles): 6%
AMLVpp % inh [1]: 21%

T-T-T-I-R-R-H-V-D-L-L-V-G-A-A-A [SEQ ID NO: 12]
HCVpp % inh (HCV pseudoparticles): 31%
AMLVpp % inh [1]: −5%

Q-K-I-Q-L-V-N-T-N-G-S-W-H-I-N-R (QKIQLVNTNGSWHINR; HCV peptide) [SEQ ID NO: 34]
HCVpp % inh (HCV pseudoparticles): 6%
AMLVpp % inh [1]: 13%

D-C-F-R-K-H-P-E-A-T-Y-T-K-C-G-S [SEQ ID NO: 59]
HCVpp % inh (HCV pseudoparticles): 26%
AMLVpp % inh [1]: −14%

F-A-Q-G-W-G-P-I-T-Y-N-E-S-H-S-S [SEQ ID NO: 42]
HCVpp % inh (HCV pseudoparticles): 49%
AMLVpp % inh [1]: 15%

A-Y-Y-S-W-V-G-N-W-A-K-V-L-I-V-M [SEQ ID NO: 27]
HCVpp % inh (HCV pseudoparticles): 39%
AMLVpp % inh [1]: −2%

A-I-K-W-E-Y-V-L-L-L-F-L-L [SEQ ID NO: 86]
% control (HCVpp entry), alanine scanning (HCV pseudoparticles; 0.1 nM of peptide (printed for three rows), two values per peptide and row): 86 % control and 90 % control and 87 % control and 103 % control and 108 % control
% control (HCVpp entry), alanine scanning (HCV pseudoparticles; 0.3 nM of peptide, two values per peptide): 96 % control and 133 % control
% control (HCVpp entry), alanine scanning (HCV pseudoparticles; 1 nM of peptide, two values per peptide): 80 % control and 102 % control
% control (HCVpp entry), alanine scanning (HCV pseudoparticles; 3 nM of peptide, two values per peptide): 90 % control and 118 % control
% control (HCVpp entry), alanine scanning (HCV pseudoparticles; 10 nM of peptide, two values per peptide): 69 % control and 67 % control
luciferase units, HCV entry (HCV pseudoparticles; [2]): 10981 luciferase units and 12701 luciferase units and 17159 luciferase units and 18427 luciferase units and 19121 luciferase units and 16287 luciferase units
% control (HCVpp entry), alanine scanning (HCV pseudoparticles; 30 nM of peptide, two values per peptide): 59 % control and 60 % control
luciferase units, HCV entry (HCV pseudoparticles; 0.04115226 uM of peptide): 8349 luciferase units and 8612 luciferase units
% control (HCVpp entry), alanine scanning (HCV pseudoparticles; 100 nM of peptide, two values per peptide): 48 % control and 33 % control
luciferase units, HCV entry (HCV pseudoparticles; 0.1234568 uM of peptide): 6445 luciferase units and 3869 luciferase units
% control (HCVpp entry), alanine scanning (HCV pseudoparticles; 300 nM of peptide, two values per peptide): 25 % control and 30 % control
luciferase units, HCV entry (HCV pseudoparticles; 0.3703704 uM of peptide): 5748 luciferase units and 3127 luciferase units
luciferase units, HCV entry (HCV pseudoparticles; 1.111111 uM of peptide): 3652 luciferase units and 3574 luciferase units
luciferase units, HCV entry (HCV pseudoparticles; 3.333333 uM of peptide): 2746 luciferase units and 2356 luciferase units
% control (HCVpp entry), alanine scanning (HCV pseudoparticles; 10000 nM of peptide, two values per peptide): 27 % control and 25 % control
luciferase units, HCV entry (HCV pseudoparticles; 30 uM of peptide): 1899 luciferase units and 1645 luciferase units
% control (HCVpp entry), alanine scanning (HCV pseudoparticles; 30000 nM of peptide, two values per peptide): 15 % control and 27 % control
% of control at ~30 uM (HCV pseudoparticles): 13%
luciferase units, AMLV entry [1, 2]: 42295 luciferase units and 44556 luciferase units and 43059 luciferase units and 48854 luciferase units and 37783 luciferase units and 49462 luciferase units
luciferase units, AMLV entry ([1]; 0.04115226 uM of peptide): 42084 luciferase units and 47952 luciferase units
luciferase units, AMLV entry ([1]; 0.1234568 uM of peptide): 37163 luciferase units and 47412 luciferase units
luciferase units, AMLV entry ([1]; 0.3703704 uM of peptide): 43543 luciferase units and 47987 luciferase units
luciferase units, AMLV entry ([1]; 1.111111 uM of peptide): 40296 luciferase units and 43593 luciferase units
luciferase units, AMLV entry ([1]; 3.333333 uM of peptide): 53350 luciferase units and 39047 luciferase units
luciferase units, AMLV entry ([1]; 10 uM of peptide): 70573 luciferase units and 72462 luciferase units
luciferase units, AMLV entry ([1]; 30 uM of peptide): 76174 luciferase units and 71333 luciferase units

V-H-K-F-N-S-S-G-C-P-E-R-M-A-S-C [SEQ ID NO: 39]
HCVpp % inh (HCV pseudoparticles): −11%
AMLVpp % inh [1]: −15%

N-S-S-R-C-W-V-A-L-T-P-T-L-A-A-R [SEQ ID NO: 9]
HCVpp % inh (HCV pseudoparticles): 5%
AMLVpp % inh [1]: 28%

P-C-T-V-N-F-T-I-F-K-V-R-M-Y-V-G (PCTVNFTIFKVRMYVG; HCV peptide) [SEQ ID NO: 64]
HCVpp % inh (HCV pseudoparticles): −2%
AMLVpp % inh [1]: −30%

S-S-D-Q-R-P-Y-C-W-H-Y-A-P-R-P-C [SEQ ID NO: 44]
HCVpp % inh (HCV pseudoparticles): 14%
AMLVpp % inh [1]: 15%

I-F-K-V-R-M-Y-V-G-G-V-E-H-R-L-E (IFKVRMYVGGVEHRLE; HCV peptide) [SEQ ID NO: 65]
HCVpp % inh (HCV pseudoparticles): 19%
AMLVpp % inh [1]: −62%

N-S-T-G-F-T-K-T-C-G-C-P-P-C-N-I [SEQ ID NO: 55]
HCVpp % inh (HCV pseudoparticles): 23%
AMLVpp % inh [1]: 3%

N-R-T-A-L-N-C-N-D-S-L-N-T-G-F-L (NRTALNCNDSLNTGFL; not fully specified (C-terminus); printed as N-R-T-A-L-N-C-N-D-S-L-N-T-G-F-L) [SEQ ID NO: 36]
HCVpp % inh (HCV pseudoparticles): 23%
AMLVpp % inh [1]: 18%

P-C-G-I-V-P-A-A-Q-V-C-G-P-V-Y-C [SEQ ID NO: 46]
HCVpp % inh (HCV pseudoparticles): 29%
AMLVpp % inh [1]: −2%

I-M-H-T-P-G-C-V-P-C-V-R-E-N-N-S [SEQ ID NO: 7]
HCVpp % inh (HCV pseudoparticles): 3%
AMLVpp % inh [1]: −4%

A-I-K-W-E-Y-V-L-L-L-F-L-L [SEQ ID NO: 81]
% control (HCVpp entry), glycine scanning (HCV pseudoparticles; 0.00003 uM of peptide, two values per peptide and row): 86 % control and 77 % control and 104 % control and 134 % control
% control (HCVpp entry), glycine scanning (HCV pseudoparticles; 0.0001 uM of peptide, two values per peptide): 103 % control and 79 % control
% control (HCVpp entry), glycine scanning (HCV pseudoparticles; 0.0003 uM of peptide, two values per peptide): 90 % control and 105 % control
% control (HCVpp entry), glycine scanning (HCV pseudoparticles; 0.001 uM of peptide, two values per peptide): 94 % control and 114 % control
% control (HCVpp entry), glycine scanning (HCV pseudoparticles; 0.003 uM of peptide, two values per peptide): 82 % control and 66 % control
% control (HCVpp entry), glycine scanning (HCV pseudoparticles; 0.01 uM of peptide, two values per peptide): 70 % control and 71 % control
% control (HCVpp entry), glycine scanning (HCV pseudoparticles; 0.03 uM of peptide, two values per peptide): 51 % control and 38 % control
luciferase units, HCV entry (HCV pseudoparticles; 0.04115226 uM of peptide): 3138 luciferase units and 5487 luciferase units
luciferase units, HCV entry (HCV pseudoparticles; 0.1234568 uM of peptide): 1665 luciferase units and 1759 luciferase units
% control (HCVpp entry), glycine scanning (HCV pseudoparticles; 0.3 uM of peptide, two values per peptide): 39 % control and 31 % control
luciferase units, HCV entry (HCV pseudoparticles; 0.3703704 uM of peptide): 2133 luciferase units and 2617 luciferase units
luciferase units, HCV entry (HCV pseudoparticles; 1.111111 uM of peptide): 2065 luciferase units and 2449 luciferase units
luciferase units, HCV entry (HCV pseudoparticles; 10 uM of peptide): 2584 luciferase units and 3853 luciferase units
% control (HCVpp entry), glycine scanning (HCV pseudoparticles; 10 uM of peptide, two values per peptide): 22 % control and 34 % control
luciferase units, HCV entry (HCV pseudoparticles; 30 uM of peptide): 990 luciferase units and 667 luciferase units
% control (HCVpp entry), glycine scanning (HCV pseudoparticles; 30 uM of peptide, two values per peptide): 30 % control and 26 % control
viral entry as a percentage of the uninhibited control (HCV pseudoparticles; 0.1 nM of peptide (three lines), 0.0001 µM): 79% and 103% and 77% and 86% and 134% and 104%
viral entry as a percentage of the uninhibited control (HCV pseudoparticles; 0.3 nM of peptide, 0.0003 µM): 105% and 90%
viral entry as a percentage of the uninhibited control (HCV pseudoparticles; 1 nM of peptide, 0.001 µM): 114% and 94%
viral entry as a percentage of the uninhibited control (HCV pseudoparticles; 3 nM of peptide, 0.003 µM): 66% and 82%
viral entry as a percentage of the uninhibited control (HCV pseudoparticles; 10 nM of peptide, 0.01 µM): 71% and 70%
viral entry as a percentage of the uninhibited control (HCV pseudoparticles; 30 nM of peptide, 0.03 µM): 38% and 51%
viral entry as a percentage of the uninhibited control (HCV pseudoparticles; 300 nM of peptide, 0.3 µM): 31% and 39%
viral entry as a percentage of the uninhibited control (HCV pseudoparticles; 10000 nM of peptide, 10 µM): 34% and 22%
viral entry as a percentage of the uninhibited control (HCV pseudoparticles; 30000 nM of peptide, 30 µM): 26% and 30%
% of control at ~30 uM (HCV pseudoparticles): 17%
luciferase units, AMLV entry [1, 2]: 46029 luciferase units and 39655 luciferase units and 41740 luciferase units and 42548 luciferase units and 45150 luciferase units and 45203 luciferase units
luciferase units, AMLV entry ([1]; 0.04115226 uM of peptide): 40104 luciferase units and 51496 luciferase units
luciferase units, AMLV entry ([1]; 0.1234568 uM of peptide): 51789 luciferase units and 49401 luciferase units
luciferase units, AMLV entry ([1]; 0.3703704 uM of peptide): 48861 luciferase units and 55221 luciferase units
luciferase units, AMLV entry ([1]; 1.111111 uM of peptide): 54439 luciferase units and 53032 luciferase units
luciferase units, AMLV entry ([1]; 3.333333 uM of peptide): 62658 luciferase units and 51388 luciferase units
luciferase units, AMLV entry ([1]; 30 uM of peptide): 86600 luciferase units and 64937 luciferase units
